Test results published in patent publication US12565501B2, “Muscarinic acetylcholine M1 receptor antagonists” (Contineum Therapeutics, Inc., priority 2019, dated 2026).

Columns and labels:
Type in all cases: cell-based
human M4 receptor = target: T1, human M4 receptor (Homo sapiens, UniProt P08173); assay: In vitro functional assay, reversal of EC80 acetylcholine response in CHO-K1 aequorin cells
T1 sequence (P08173 1-479): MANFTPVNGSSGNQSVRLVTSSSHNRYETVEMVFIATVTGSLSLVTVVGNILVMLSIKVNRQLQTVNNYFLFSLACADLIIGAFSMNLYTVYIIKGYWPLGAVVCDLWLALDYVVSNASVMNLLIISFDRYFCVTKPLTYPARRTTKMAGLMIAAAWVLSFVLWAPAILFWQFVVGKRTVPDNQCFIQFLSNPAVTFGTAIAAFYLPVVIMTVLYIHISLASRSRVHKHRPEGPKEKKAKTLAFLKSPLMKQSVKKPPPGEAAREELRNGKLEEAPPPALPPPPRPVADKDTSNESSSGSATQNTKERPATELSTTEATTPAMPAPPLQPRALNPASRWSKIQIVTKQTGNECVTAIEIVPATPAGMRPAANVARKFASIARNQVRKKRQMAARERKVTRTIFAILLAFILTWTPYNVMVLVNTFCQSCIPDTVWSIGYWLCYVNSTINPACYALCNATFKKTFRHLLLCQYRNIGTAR
Protocol: (§1) CHO-K1 cells stably expressing human M1 receptor with aequorin (Perkin Elmer) were grown in F12 media (Gibco) containing 10% FBS (ATCC), 0.4 mg/mL geneticin (Sigma-Aldrich) and 0.25 mg/mL Zeocin (Invitrogen). Cells were grown as per the manufacturer's protocol. For compound testing, cells were grown to confluency and detached gently with Accutase (Sigma-Aldrich) followed by centrifugation for 5 min at 150× g. Cells were then re-suspended in assay buffer (i.e. DMEM/F-12 HEPES without phenol red (Invitrogen) with 0.1% BSA (Sigma-Aldrich)) at a density of 5×10^6 cells/ml. Under sterile conditions, 5 μM coelenterazine (Invitrogen) was added to the cells, mixed, then incubated at room temperature protected from light, with gentle agitation, for 4 h.
(§2) Primary compound plates were prepared in 100% DMSO in opaque 96-well plates (VWR) and serially diluted in half log increments. Secondary compound plates were prepared at 3× concentration in assay buffer. Compounds were added to white, clear bottom tissue culture treated 96-well plates (Fisher Scientific). Coelenterazine-loaded cells were then added at 5×10^5 cells/well.
(§3) Compounds and cells were incubated at room temperature for 30 min in the dark. Acetylcholine at the EC80 concentration was added and calcium flux measured using a FlexStation 3 (Molecular Devices). Sigmoidal dose-response curves were generated by measuring luminescence over 40 sec and calculating the area under the curve. Dose response curves and IC50 values were generated using Prism (GraphPad). Compounds were tested at a final concentration range of 100 μM to […] in 0.1% DMSO.
(§4) CHO-K1 cells stably expressing human M2, M3 and M4 receptors, respectively, with aequonin (Perkin Elmer) were used to assess a test compound's ability to dose-dependently reverse the EC80 acetylcholine response. The IC50 of the compounds was calculated from the dose response curve.

human M3 receptor = human M3 receptor (Homo sapiens, UniProt P20309); assay: as above
Protocol: as §1, §2, §3, §4

human M2 receptor = target: T2, human M2 receptor (Homo sapiens, UniProt P08172); assay: as above
T2 sequence (P08172 1-466): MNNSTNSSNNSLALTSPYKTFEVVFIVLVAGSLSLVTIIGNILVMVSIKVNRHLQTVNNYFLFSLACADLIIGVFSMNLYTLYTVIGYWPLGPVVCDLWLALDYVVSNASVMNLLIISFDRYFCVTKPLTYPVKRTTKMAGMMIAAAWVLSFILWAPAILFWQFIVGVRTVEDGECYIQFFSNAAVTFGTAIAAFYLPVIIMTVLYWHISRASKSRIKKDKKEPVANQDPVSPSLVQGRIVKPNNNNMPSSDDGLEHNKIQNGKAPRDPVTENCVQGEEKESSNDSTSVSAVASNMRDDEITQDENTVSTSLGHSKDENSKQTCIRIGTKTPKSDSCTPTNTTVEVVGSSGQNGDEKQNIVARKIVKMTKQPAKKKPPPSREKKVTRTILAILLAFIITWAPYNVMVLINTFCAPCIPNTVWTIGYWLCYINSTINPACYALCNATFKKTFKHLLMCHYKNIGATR
Protocol: as §1, §2, §3, §4

human M1 receptor = target: T3, human M1 receptor (Homo sapiens, UniProt P11229); assay: In vitro functional assay of muscarinic acetylcholine receptor activity (aequorin calcium flux, reversal of EC80 acetylcholine response); conditions: CHO-K1 cells stably expressing human M1 receptor with aequorin; acetylcholine at EC80; calcium flux (luminescence); read-out: M1 IC50
T3 sequence (P11229 1-460): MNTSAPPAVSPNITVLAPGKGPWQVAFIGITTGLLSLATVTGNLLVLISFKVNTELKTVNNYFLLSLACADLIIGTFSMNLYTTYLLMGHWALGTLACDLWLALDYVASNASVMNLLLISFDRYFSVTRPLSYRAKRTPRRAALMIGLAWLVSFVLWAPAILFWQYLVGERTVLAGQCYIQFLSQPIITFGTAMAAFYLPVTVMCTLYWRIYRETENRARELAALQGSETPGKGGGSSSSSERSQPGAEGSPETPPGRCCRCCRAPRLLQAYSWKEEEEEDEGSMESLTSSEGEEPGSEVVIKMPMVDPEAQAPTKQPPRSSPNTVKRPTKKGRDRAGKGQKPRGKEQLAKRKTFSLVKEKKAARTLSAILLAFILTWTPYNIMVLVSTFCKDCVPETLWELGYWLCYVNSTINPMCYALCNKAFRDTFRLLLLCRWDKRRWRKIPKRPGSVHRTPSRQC
In short: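 Antagonist mode: compound (final 0.1% DMSO) and coelenterazine-loaded M1/aequorin CHO-K1 cells incubated 30 min in the dark before EC80 acetylcholine addition. Calcium flash integrated as 40 s luminescence AUC; IC50 derived from dose-response curves.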

Chain of human M3 receptor (P20309 whole entry): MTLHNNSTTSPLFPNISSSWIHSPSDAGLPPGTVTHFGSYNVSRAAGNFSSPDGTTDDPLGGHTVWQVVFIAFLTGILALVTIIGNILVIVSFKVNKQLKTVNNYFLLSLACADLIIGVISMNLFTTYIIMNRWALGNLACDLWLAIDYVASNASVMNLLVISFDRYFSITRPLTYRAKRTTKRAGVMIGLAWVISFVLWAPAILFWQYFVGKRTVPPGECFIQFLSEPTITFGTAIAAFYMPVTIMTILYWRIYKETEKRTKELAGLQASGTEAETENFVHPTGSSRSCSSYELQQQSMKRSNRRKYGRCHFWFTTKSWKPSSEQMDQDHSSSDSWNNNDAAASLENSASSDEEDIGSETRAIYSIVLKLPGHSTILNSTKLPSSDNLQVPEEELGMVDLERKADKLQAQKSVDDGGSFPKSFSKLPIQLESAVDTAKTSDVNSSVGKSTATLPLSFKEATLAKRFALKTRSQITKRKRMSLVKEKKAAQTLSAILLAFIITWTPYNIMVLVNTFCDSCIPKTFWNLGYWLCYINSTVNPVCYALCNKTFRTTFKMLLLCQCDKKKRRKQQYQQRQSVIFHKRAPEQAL

Structure (SMILES)	IC50 (human M4 receptor) [nM]	IC50 (human M3 receptor) [nM]	IC50 (human M2 receptor) [nM]	IC50 (human M1 receptor) [nM]
N#Cc1ccc(N2C3CCC2CN(C(=O)CCNC2(c4ccc(F)c(F)c4)CC2)C3)nc1 [Example 1, 6-(3-(3-((1-(3,4-difluorophenyl)cyclopropyl)amino)propanoyl)-3,8-diazabicyclo[3.2.1]octan-8-yl)nicotinonitrile]	100 to 1000	1000 to 10000	100 to 1000	< 10
N#Cc1ccc(N2C3CCC2CN(C(=O)CNC2(c4ccc(F)cc4F)CC2)C3)nc1 [Example 59, 6-(3-((1-(2,4-difluorophenyl)cyclopropyl)glycyl)-3,8-diazabicyclo[3.2.1]octan-8-yl)nicotinonitrile]	1000 to 10000	1000 to 10000	1000 to 10000	< 10
C[C@H](NCC(=O)N1CC2CCC(C1)N2c1ccc(C#N)cn1)c1ccc(F)cc1F [Example 87, 6-(3-(((S)-1-(2,4-difluorophenyl)ethyl)glycyl)-3,8-diazabicyclo[3.2.1]octan-8-yl)nicotinonitrile]	1000 to 10000	1000 to 10000	1000 to 10000	< 10
COc1cc(C2(NCC(=O)N3CC4CCC(C3)N4c3ccc(C#N)cn3)CCC2)ccn1 [Example 118, 6-(3-((1-(2-methoxypyridin-4-yl)cyclobutyl)glycyl)-3,8-diazabicyclo[3.2.1]octan-8-yl)nicotinonitrile]	100 to 1000	1000 to 10000	1000 to 10000	10 to 100
COc1cc(C(F)(F)CCC(=O)N2CC3CCC(C2)N3c2ccc(C#N)cn2)ccn1 [Example 138, 6-(3-(4,4-difluoro-4-(2-methoxypyridin-4-yl)butanoyl)-3,8-diazabicyclo[3.2.1]octan-8-yl)nicotinonitrile]	100 to 1000	100 to 1000	1000 to 10000	< 10
COc1ccnc(C(F)(F)CCC(=O)N2CC3CCC(C2)N3c2ccc(C#N)cn2)c1 [Example 147, 6-(3-(4,4-difluoro-4-(4-methoxypyridin-2-yl)butanoyl)-3,8-diazabicyclo[3.2.1]oxtan-8-yl)nicotinonitrile]	100 to 1000	100 to 1000	1000 to 10000	< 10
N#Cc1ccc(N2C3CCC2CN(C(=O)CCC(F)(F)c2cccn4ncnc24)C3)nc1 [Example 158, 6-(3-(4-([1,2,4]triazolo[1,5-a]pyridin-8-yl)-4,4-difluorobutanoyl)-3,8-diazabicyclo[3.2.1]octan-8-yl)nicotinonitrile]	100 to 1000	100 to 1000	1000 to 10000	< 10
COc1cccnc1C(F)(F)CCC(=O)N1CC2CCC(C1)N2c1ccc(C#N)cn1 [Example 162, 6-(3-(4,4-difluoro-4-(3-methoxypyridin-2-yl)butanoyl)-3,8-diazabicyclo[3.2.1]octan-8-yl)nicotinonitrile]	100 to 1000	100 to 1000	1000 to 10000	< 10
N#Cc1ccc(N2C3CCC2CN(C(=O)COC2(c4ccc(F)c(F)c4)CC2)C3)nc1 [Example 177, 6-(3-(2-(1-(3,4-difluorophenyl)cyclopropoxy)acetyl)-3,8-diazabicyclo[3.2.1]octan-8-yl)nicotinonitrile]	1000 to 10000	1000 to 10000	1000 to 10000	10 to 100
N#Cc1ccc(N2C3CCC2CN(C(=O)COC2(c4cc(F)cc(F)c4)CC2)C3)nc1 [Example 210, 6-(3-(2-(1-(3,5-difluorophenyl)cyclopropoxy)acetyl)-3,8-diazabicyclo[3.2.1]octan-8-yl)nicotinonitrile]		1000 to 10000	> 1000	10 to 100
N#Cc1ccc(N2C3CC[C@H]2CN(C(=O)COC2(c4ccc(F)c(F)c4)CCC2)C3)nc1 [Example 239]	1000 to 10000	1000 to 10000	1000 to 10000	< 10
N#Cc1ccc(N2C3CCC2CN(C(=O)COC2(c4ncccc4F)CCC2)C3)nc1 [Example 250, 6-(3-(2-(1-(3-fluoropyridin-2-yl)cyclobutoxy)acetyl)-3,8-diazabicyclo[3.2.1]octan-8-yl)nicotinonitrile]		1000 to 10000	> 1000	100 to 1000
C[C@@H](OCCC(=O)N1C[C@H]2CC[C@@H](C1)N2c1ccc(C#N)cn1)c1ccccc1 [Example 304, 6-(3-(3-((R)-1-phenylethoxy)propanoyl)-3,8-diazabicyclo[3.2.1]octan-8-yl)nicotinonitrile]		> 1000	1000 to 10000	10 to 100
C[C@@H](OCCC(=O)N1CC2CCC(C1)N2c1ccc(C#N)cn1)c1ccc(F)c(F)c1 [Example 306, 6-(3-(3-((R)-1-(3,4-difluorophenyl)ethoxy)propanoyl)-3,8-diazabicyclo[3.2.1]octan-8-yl)nicotinonitrile]				10 to 100
N#Cc1ccc(N2C3CCC2CN(C(=O)CCOCC2(c4ccccc4)CC2)C3)nc1 [Example 307, 6-(3-(3-((1-phenylcyclopropyl)methoxy)propanoyl)-3,8-diazabicyclo[3.2.1]octan-8-yl)nicotinonitrile]				100 to 1000
N#Cc1ccc(N2C3CCC2CN(C(=O)CCOC2(c4ccc(F)cc4)CCC2)C3)nc1 [Example 310, 6-(3-(3-(1-(4-fluorophenyl)cyclobutoxy)propanoyl)-3,8-diazabicyclo[3.2.1]octan-8-yl)nicotinonitrile]				< 10
N#Cc1ccc(N2C3CCC2CN(C(=O)COC2(c4cncc(O)c4)CCC2)C3)nc1 [Example 313, 6-(3-(2-(1-(5-hydroxypyridin-3-yl)cyclobutoxy)acetyl)-3,8-diazabicyclo[3.2.1]octan-8-yl)nicotinonitrile]				< 10
N#Cc1ccc(N2C3CCC2CN(C(=O)COC2(c4cncc(OCC(F)(F)F)c4)CCC2)C3)nc1 [Example 314, 6-(3-(2-(1-(5-(2,2,2-trifluoroethoxy)pyridin-3-yl)cyclobutoxy)acetyl)-3,8-diazabicyclo[3.2.1]octan-8-yl)nicotinonitrile]				10 to 100
N#Cc1ccc(N2C3CCC2CN(C(=O)COC2(c4c(F)cncc4F)CCC2)C3)nc1 [Example 316, 6-(3-(2-(1-(3,5-difluoropyridin-4-yl)cyclobutoxy)acetyl)-3,8-diazabicyclo[3.2.1]octan-8-yl)nicotinonitrile]				< 10
